Values after ≈ are worked out from the molar mass of the structure shown.
How the values were obtained:
Staphylococcus aureus [1] = experiment: Antibacterial activity against Staphylococcus aureus SMITH after 18 hrs by two-fold microbroth dilution method; type: functional
Streptococcus pneumoniae [2] = experiment: Antibacterial activity against penicillin-susceptible Streptococcus pneumoniae J24 after 18 hrs by two-fold microbroth dilution method; type: functional; conditions: J24, 18 h
Streptococcus pneumoniae [3] = experiment: Antibacterial activity against penicillin-susceptible Streptococcus pneumoniae J41 after 18 hrs by two-fold microbroth dilution method; type: functional; conditions: J41, 18 h
Streptococcus pyogenes = experiment: Antibacterial activity against Streptococcus pyogenes ATCC 12344 after 18 hrs by two-fold microbroth dilution method; type: functional; conditions: ATCC 12344, 18 h
Enterococcus faecalis = experiment: Antibacterial activity against Enterococcus faecalis ATCC 19433 after 18 hrs by two-fold microbroth dilution method; type: functional; conditions: ATCC 19433, 18 h
Bacillus spizizenii = experiment: Antibacterial activity against Bacillus subtilis ATCC 6633 after 18 hrs by two-fold microbroth dilution method; type: functional; conditions: ATCC 6633, 18 h
Escherichia coli [4] = experiment: Antibacterial activity against Escherichia coli NIHJ after 18 hrs by two-fold microbroth dilution method; type: functional
Klebsiella pneumoniae = experiment: Antibacterial activity against Klebsiella pneumoniae TYPE 1 after 18 hrs by two-fold microbroth dilution method; type: functional; conditions: TYPE 1, 18 h
Haemophilus influenzae = experiment: Antibacterial activity against Haemophilus influenzae ATCC 49247 after 18 hrs by two-fold microbroth dilution method; type: functional; conditions: ATCC 49247, 18 h
Moraxella catarrhalis = experiment: Antibacterial activity against Moraxella catarrhalis ATCC 25238 after 18 hrs by two-fold microbroth dilution method; type: functional; conditions: ATCC 25238, 18 h
Pseudomonas aeruginosa = experiment: Antibacterial activity against Pseudomonas aeruginosa PAO1 after 18 hrs by two-fold microbroth dilution method; type: functional; conditions: PAO1, 18 h
Staphylococcus aureus [5] = experiment: Antibacterial activity against levofloxacin and methicillin-resistant Staphylococcus aureus 870307 after 18 hrs by two-fold microbroth dilution method; type: functional; conditions: Staphylococcus aureus, 870307, 18 h
Staphylococcus aureus [6] = experiment: Antibacterial activity against levofloxacin and methicillin-resistant Staphylococcus aureus 890325-1 after 18 hrs by two-fold microbroth dilution method; type: functional; conditions: 890325-1, 18 h
Streptococcus pneumoniae [7] = experiment: Antibacterial activity against penicillin-resistant Streptococcus pneumoniae 033806 after 18 hrs by two-fold microbroth dilution method; type: functional; conditions: Streptococcus pneumoniae, 033806, 18 h
Escherichia coli [8] = experiment: Antibacterial activity against quinolone-resistant Escherichia coli DNS5101 after 18 hrs by two-fold microbroth dilution method; type: functional; conditions: DNS5101, 18 h
Escherichia coli [9] = experiment: Antibacterial activity against Escherichia coli 5-037042'98 harboring gyrase A Asp87Gly mutation after 18 hrs by two-fold microbroth dilution method; type: functional; conditions: 5-037042'98, 18 h
Staphylococcus aureus [10] = experiment: Antibacterial activity against methicillin-resistant Staphylococcus aureus after 18 hrs by two-fold microbroth dilution method; type: functional
hERG (KCNH2) [11] = target: T1, hERG (KCNH2) (Homo sapiens, UniProt Q12809); experiment: Inhibition of human ERG expressed in CHOK1 cells at 30 uM; type: cell-based; conditions: CHOK1 cells that express human ERG
hERG (KCNH2) [12] = target: T1, hERG (KCNH2); experiment: Inhibition of human ERG expressed in CHOK1 cells at 100 uM; type: cell-based; conditions: CHOK1 cells that express human ERG
[13] = Metabolic stability in human microsomes at 1 uM assessed as compound remaining after 30 mins; type: ADME, Microsome; conditions: read-out: Stability
Albumin = Albumin (Homo sapiens, UniProt P02768); experiment: Binding affinity to human serum albumin after 60 mins at 37 degC by ultrafiltration-based LC-MS analysis; type: ADME; conditions: read-out: PB (converted)
CYP3A4 = CYP3A4 (Homo sapiens, UniProt P08684); experiment: Inhibition of CYP3A4 in human liver microsomes at 10 uM assessed as remaining activity by measuring 1'-hydroxylation of midazolam after 30 mins; type: ADME; conditions: probe midazolam (1'-hydroxylation), read-out: Activity
[14] = Cmax in Crj:CD rat at 5 mg/kg, po; type: ADME, organism-based; set-up: dose 5 mg/kg, route oral; conditions: in vivo
[15] = AUC (0 to 8 hrs) in Crj:CD rat at 5 mg/kg, po; type: ADME, organism-based; set-up: time < 8 hr, dose 5 mg/kg, route oral; conditions: in vivo
[16] = Cmin in cynomolgus monkey serum at 5 mg/kg, iv after 5 mins; type: ADME, organism-based, Macaca fascicularis; conditions: read-out: Cmin
[17] = AUC (0 to 8 hrs) in cynomolgus monkey serum at 5 mg/kg, iv; type: ADME, organism-based, Macaca fascicularis; set-up: dose 5 mg/kg, time < 8 hr, route intravenous
[18] = Primary phase half life in cynomolgus monkey serum at 5 mg/kg, iv; type: ADME, organism-based, Macaca fascicularis; conditions: read-out: alphat1/2 (converted)
[19] = Drug recovery in cynomolgus monkey urine at 5 mg/kg, iv after 24 hrs; type: ADME, organism-based, Macaca fascicularis; conditions: read-out: Drug recovery
Mus musculus [20] = experiment: Toxicity in Slc:ddY mouse assessed as induction of convulsion at 5 ug/5 uL/mouse administered intracisternally and measured over 30 mins post dose; type: organism-based; conditions: in vivo, other, 0.5 h
Mus musculus [21] = experiment: Toxicity in Slc:ddY mouse assessed as induction of convulsion at 5 ug/5 uL/mouse administered intracisternally 30 mins after 400 mg/kg, po BPAA dosing and measured over 30 mins post dose; type: organism-based; conditions: in vivo, 0.5 h
Mus musculus [22] = experiment: Toxicity in Slc:ddY mouse assessed as induction of convulsion at 15 ug/5 uL/mouse administered intracisternally 30 mins after 400 mg/kg, po BPAA dosing and measured over 30 mins post dose; type: organism-based; conditions: in vivo, 0.5 h
Mus musculus [23] = experiment: Toxicity in Slc:ddY mouse assessed as induction of convulsion at 15 ug/5 uL/mouse administered intracisternally and measured over 30 mins post dose; type: organism-based; conditions: in vivo, other, 0.5 h
Mus musculus [24] = experiment: Toxicity in Slc:ddY mouse assessed as induction of mortality at 5 ug/5 uL/mouse administered intracisternally and measured over 30 mins post dose; type: organism-based; conditions: in vivo, other, 0.5 h
Mus musculus [25] = experiment: Toxicity in Slc:ddY mouse assessed as induction of mortality at 15 ug/5 uL/mouse administered intracisternally and measured over 30 mins post dose; type: organism-based; conditions: in vivo, other, 0.5 h
Mus musculus [26] = experiment: Toxicity in Slc:ddY mouse assessed as induction of mortality at 50 ug/5 uL/mouse administered intracisternally and measured over 30 mins post dose; type: organism-based; conditions: in vivo, other, 0.5 h
Mus musculus [27] = experiment: Toxicity in Slc:ddY mouse assessed as induction of mortality at 5 ug/5 uL/mouse administered intracisternally 30 mins after 400 mg/kg, po BPAA dosing and measured over 30 mins post dose; type: organism-based; conditions: in vivo, 0.5 h
Mus musculus [28] = experiment: Toxicity in Slc:ddY mouse assessed as induction of mortality at 15 ug/5 uL/mouse administered intracisternally 30 mins after 400 mg/kg, po BPAA dosing and measured over 30 mins post dose; type: organism-based; conditions: in vivo, 0.5 h
Mus musculus [29] = experiment: Toxicity in Slc:ddY mouse assessed as induction of mortality at 50 ug/5 uL/mouse administered intracisternally 30 mins after 400 mg/kg, po BPAA dosing and measured over 30 mins post dose; type: organism-based; conditions: in vivo, 0.5 h

T1 sequence (Q12809 whole entry): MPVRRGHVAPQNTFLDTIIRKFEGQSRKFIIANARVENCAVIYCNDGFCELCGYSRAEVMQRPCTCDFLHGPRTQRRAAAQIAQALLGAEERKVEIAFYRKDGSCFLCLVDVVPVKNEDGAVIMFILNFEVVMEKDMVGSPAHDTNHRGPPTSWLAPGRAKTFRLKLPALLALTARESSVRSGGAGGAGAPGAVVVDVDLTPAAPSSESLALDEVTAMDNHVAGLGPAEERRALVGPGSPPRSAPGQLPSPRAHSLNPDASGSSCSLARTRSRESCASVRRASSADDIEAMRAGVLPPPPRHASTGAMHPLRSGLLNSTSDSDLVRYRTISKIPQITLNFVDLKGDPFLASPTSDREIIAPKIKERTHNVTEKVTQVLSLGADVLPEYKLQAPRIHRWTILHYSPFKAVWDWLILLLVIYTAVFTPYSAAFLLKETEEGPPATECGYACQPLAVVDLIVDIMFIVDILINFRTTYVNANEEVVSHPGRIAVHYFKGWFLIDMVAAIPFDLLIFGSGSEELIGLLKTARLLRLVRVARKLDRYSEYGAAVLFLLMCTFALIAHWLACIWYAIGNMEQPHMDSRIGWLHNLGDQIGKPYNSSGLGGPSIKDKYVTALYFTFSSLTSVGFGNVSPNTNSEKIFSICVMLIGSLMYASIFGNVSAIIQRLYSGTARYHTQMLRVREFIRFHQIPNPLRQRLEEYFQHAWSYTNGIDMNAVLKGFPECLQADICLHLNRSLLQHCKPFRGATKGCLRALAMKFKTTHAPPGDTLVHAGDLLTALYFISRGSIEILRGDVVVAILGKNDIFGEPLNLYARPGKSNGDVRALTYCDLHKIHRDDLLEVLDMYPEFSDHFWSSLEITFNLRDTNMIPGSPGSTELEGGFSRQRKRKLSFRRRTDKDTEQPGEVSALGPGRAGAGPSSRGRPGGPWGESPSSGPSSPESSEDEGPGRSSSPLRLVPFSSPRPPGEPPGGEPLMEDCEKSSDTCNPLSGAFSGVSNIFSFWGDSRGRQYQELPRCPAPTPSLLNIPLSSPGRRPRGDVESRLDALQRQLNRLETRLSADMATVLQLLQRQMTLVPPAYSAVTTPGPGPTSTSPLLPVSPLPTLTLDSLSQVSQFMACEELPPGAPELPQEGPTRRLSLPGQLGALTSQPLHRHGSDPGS
Sequence of Albumin (P02768 whole entry): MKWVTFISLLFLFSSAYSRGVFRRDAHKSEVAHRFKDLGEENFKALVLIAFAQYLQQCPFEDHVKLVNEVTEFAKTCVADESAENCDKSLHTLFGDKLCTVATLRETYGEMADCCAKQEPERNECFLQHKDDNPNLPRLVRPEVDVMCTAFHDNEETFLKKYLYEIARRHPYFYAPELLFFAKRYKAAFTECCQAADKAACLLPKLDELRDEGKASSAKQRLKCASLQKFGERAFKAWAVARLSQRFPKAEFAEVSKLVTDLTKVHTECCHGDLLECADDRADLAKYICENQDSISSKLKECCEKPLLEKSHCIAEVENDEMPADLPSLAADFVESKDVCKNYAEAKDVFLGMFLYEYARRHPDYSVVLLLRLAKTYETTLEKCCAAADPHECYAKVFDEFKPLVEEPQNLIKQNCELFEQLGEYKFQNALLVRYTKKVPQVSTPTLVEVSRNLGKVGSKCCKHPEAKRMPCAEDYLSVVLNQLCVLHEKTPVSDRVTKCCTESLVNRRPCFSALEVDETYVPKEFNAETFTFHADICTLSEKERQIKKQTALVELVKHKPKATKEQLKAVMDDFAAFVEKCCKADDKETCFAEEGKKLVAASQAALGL
Sequence of CYP3A4 (P08684 whole entry): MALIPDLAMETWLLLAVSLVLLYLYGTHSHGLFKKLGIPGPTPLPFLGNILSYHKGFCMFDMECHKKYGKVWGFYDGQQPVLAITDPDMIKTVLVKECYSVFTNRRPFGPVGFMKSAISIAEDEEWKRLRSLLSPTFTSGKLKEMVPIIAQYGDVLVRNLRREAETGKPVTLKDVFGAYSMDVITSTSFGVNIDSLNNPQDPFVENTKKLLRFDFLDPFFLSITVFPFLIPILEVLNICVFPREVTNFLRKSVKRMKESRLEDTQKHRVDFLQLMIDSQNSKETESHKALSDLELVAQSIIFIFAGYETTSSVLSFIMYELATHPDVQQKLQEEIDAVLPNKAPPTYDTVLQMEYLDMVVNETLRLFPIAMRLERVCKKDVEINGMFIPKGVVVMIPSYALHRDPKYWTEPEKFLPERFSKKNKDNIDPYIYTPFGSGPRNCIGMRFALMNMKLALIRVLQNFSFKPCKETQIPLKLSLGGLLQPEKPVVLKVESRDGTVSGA

COc1c(N2C[C@@H]3CCOC[C@@]3(N)C2)c(F)cc2c(=O)c(C(=O)O)cn([C@@H]3C[C@@H]3F)c12
MIC (Staphylococcus aureus [1]): 0.006 µg/mL (≈ 0.0138 µM) | MIC (Streptococcus pneumoniae [2]): 0.1 µg/mL (≈ 0.23 µM) | MIC (Streptococcus pneumoniae [3]): 0.05 µg/mL (≈ 0.115 µM) | MIC (Streptococcus pyogenes): 0.05 µg/mL (≈ 0.115 µM) | MIC (Enterococcus faecalis): 0.2 µg/mL (≈ 0.459 µM) | MIC (Bacillus spizizenii): 0.006 µg/mL (≈ 0.0138 µM) | MIC (Escherichia coli [4]): 0.006 µg/mL (≈ 0.0138 µM) | MIC (Klebsiella pneumoniae): 0.05 µg/mL (≈ 0.115 µM) | MIC (Haemophilus influenzae): 0.006 µg/mL (≈ 0.0138 µM) | MIC (Moraxella catarrhalis): 0.025 µg/mL (≈ 0.0574 µM) | MIC (Pseudomonas aeruginosa): 0.78 µg/mL (≈ 1.79 µM) | MIC (Staphylococcus aureus [5]): 0.2 µg/mL (≈ 0.459 µM) | MIC (Staphylococcus aureus [6]): 0.2 µg/mL (≈ 0.459 µM) | MIC (Streptococcus pneumoniae [7]): 0.12 µg/mL (≈ 0.276 µM) | MIC (Escherichia coli [8]): 1.56 µg/mL (≈ 3.58 µM) | MIC (Escherichia coli [9]): 0.05 µg/mL (≈ 0.115 µM) | MIC (Staphylococcus aureus [10]): 0.008 to 8 µg/mL | MIC50 (Staphylococcus aureus [10]; Staphylococcus aureus, 18 h): 0.015 µg/mL (≈ 0.0344 µM) | MIC90 (Staphylococcus aureus [10]; Staphylococcus aureus, 18 h): 0.5 µg/mL (≈ 1.15 µM) | inhibition at 30 µM (hERG (KCNH2) [11]): -2.2% | inhibition at 100 µM (hERG (KCNH2) [12]): -2.5% | remaining at 0.5 h, 1 µM [13]: 100% | fraction unbound at 1 h (Albumin): 1 | activity at 0.5 h, 10 µM (CYP3A4): 97.4% | Cmax [14]: 880 ng/mL | AUC(0-t) at 8 h [15]: 3140 ng·h/mL | concentration at 5 min [16]: 7000 ng/mL | AUC(0-t) at 8 h [17]: 22900 ng·h/mL | half-life [18]: 3.5 h | dose excreted at 24 h [19]: 65% | Activity (Mus musculus [20]): Non-Toxic | Activity (Mus musculus [21]): Non-Toxic | Activity (Mus musculus [22]): Non-Toxic | Activity (Mus musculus [23]): Non-Toxic | Activity (Mus musculus [24]): Non-Toxic | Activity (Mus musculus [25]): Non-Toxic | Activity (Mus musculus [26]): Non-Toxic | Activity (Mus musculus [27]): Non-Toxic | Activity (Mus musculus [28]): Non-Toxic | Activity (Mus musculus [29]): Non-Toxic
